Data taken from patent US9383348B2, “Compositions and methods for treating lung disorders” (priority 2008, dated 2016).

How the values were obtained:
IL-1 insufflated rats = assay: IL-1 insufflation inflammatory acute lung injury (ARDS) in rats; format: in vivo; conditions: NAC 150 mg/kg intravenously either just before or 2½ hours after IL-1 insufflation; 5 hours; compared to untreated IL-1 insufflated rats
Description: Insufflating IL-1 produced an inflammatory acute lung injury (ARDS, FIG. 1A) in rats 5 hours later, which was associated with increases in lung lavage neutrophils (FIG. 1B), expired H2O2 levels (FIG. 1C) and lung GSSG levels (FIG. 1D). In contrast, rats administered NAC (150 mg/kg intravenously) either just before or 2½ hours after IL-1 insufflation had decreased lung leak index, lung lavage neutrophil numbers, expired H2O2 levels and lung GSSG levels compared to untreated rats insufflated with IL-1.

[1] = system: cytokine (IL-1 and IFN-γ) insufflated rats; assay: IL-1 and IFN-γ insufflation inflammatory acute lung injury (ARDS) in rats; format: in vivo
Description: Insufflating IL-1 and interferon-γ (IFN-γ) produced an inflammatory acute lung injury (ARDS) in rats 24 hours later (9). Cytokine insufflated rats had increased lung lavage LDH concentrations (FIG. 2A) and neutrophil numbers (FIG. 2B) compared to saline insufflated control rats. […] Lavage LDH levels paralleled other measures of lung injury including increased epithelial-derived cytokeratin 18 and endothelial-derived angiotensin converting enzyme (ACE) levels and morphologic evidence of inflammation and injury.
Remarkably, protection occurred with ERGO administered post-insult even after some neutrophils had invaded the lung.
[…] Each value is the mean +/−SEM of 3 to 6 determinations.

[2] = single intravenous bolus 15 mg/kg, 1 hour before cytokine insufflation, compared to untreated cytokine insufflated rats
[3] = single intravenous bolus 150 mg/kg, 18 hours after cytokine insufflation, compared to untreated cytokine insufflated rats
[4] = single intravenous injection 150 mg/kg, 1 hour before IL-1 and IFN-γ insufflation, 24 hours

SMILES | expired H2O2 levels (IL-1 insufflated rats) | lung GSSG levels (IL-1 insufflated rats) | lung lavage neutrophil numbers (IL-1 insufflated rats) | lung leak index (IL-1 insufflated rats) | lung injury [1, 2] | lung neutrophils [1, 2] | lung neutrophil numbers [1, 3] | markers of alveolar capillary membrane injury [1, 3] | lung inflammation ([1]; single intravenous bolus 150 mg/kg, 18 hours after cytokine insufflation, data not shown) | lung lavage LDH concentrations [1, 4] | lung lavage neutrophil concentrations [1, 4] | lung lavage total leukocyte concentrations [1, 4]
CC(=O)N[C@@H](CS)C(=O)O [NAC, N-acetylcysteine] | decreased | decreased | decreased | decreased | – | – | – | – | – | – | – | –
C[N+](C)(C)[C@@H](Cc1c[nH]c(=S)[nH]1)C(=O)[O-] [ERGO, ergothioneine] | – | – | – | – | less | less | reduction in the severity | reduction in the severity | reduction in the severity | decreased | decreased | decreased
